# In patent publication US20090175805A1, “Neuraminidase Inhibitors and uses thereof” (priority 2006, published 2009):
# Legend:
# PAO1 biofilm formation = experiment: Biofilm assay, crystal violet staining in 96-well microtiter plates; type: cell-based, P. aeruginosa; conditions: various concentrations of inhibitor, absorbance at 540 nm
# Experimental: An overnight culture of bacteria grown in LB with shaking was diluted 1:100, and 100 μl aliquots added to 96-well microtiter plates incubated for 24-48 hours at 37° C. (O'Toole et al., (2000) J. Bacteriol. 182:425-431; O'Toole et al., (2000) Annu. Rev. Microbiol. 54:49-79). 0.1% crystal violet was added to each well for 15 minutes, rinsed three times with water then released with the addition of 200 μl of 95% ethanol. Absorbance was determined at 540 nm. For experiments with inhibitors, the following modifications in the assay were used: for oseltamivir (Tamiflu) (Roche, Nutley, N.J.), an overnight culture of bacteria was diluted 1:100 in different doses of inhibitor in LB and 100 μl aliquots plated and assayed as above; for peramivir (BioCryst, Birmingham, Ala.), an overnight culture of bacteria was diluted 1:100 in different doses of inhibitor in LB and incubated at room temperature for 48 hours then diluted 1:2 in LB and 100 μl aliquots plated and assayed as above (McKimm-Breschkin et al., (2003) Antimicrob. Agents. Chemother. 47:2264-2272; Sidwell et al., (2002) Expert Opin. Investig. Drugs 11:859-869). Each sample was tested in sextuplicate and the assay was repeated on three separate occasions and representative data shown. A mean and standard deviation were calculated and statistical significance determined using a two-tailed unpaired t test (Graph Pad Instat version 3.0, Graphpad Software, San Diego, Calif.) to test the null hypothesis that there was no difference in the amount of biofilm production under each test condition, as compared to the media alone or untreated control.
# [1] = tested on: PAO1 enzyme (P. aeruginosa PAO1 neuraminidase); experiment: Neuraminidase assay with fluorescent substrate 2'-(4-methylumbelliferyl)-α-D-N-acetylneuraminic acid; type: biochemical; conditions: peramivir 0.25 and 2.5 μM; 24-48 hours; fluorescence ex 360 nm / em 465 nm
# Experimental: (§1) The PAO1 enzyme (10 μg/ml) was overexpressed and purified from E. coli using the pET28a vector (Novagen, San Diego, Calif.) and a control V. cholera neuraminidase (0.1 U/ml) (Calbiochem, San Diego, Calif.) were incubated with the fluorescent substrate 2′-(4-methylumbelliferyl)-α-D-N-acetylneuraminic acid (Sigma-Aldrich, St. Louis, Mo.) (25 μM in 0.9% NaCl) with or without peramivir (0.25 and 2.5 μM) for 24-48 hours and fluorescence read at excitation 360 nm and emission 465 nm. Each data point was performed in sextuplicate. A mean and standard deviation were calculated and statistical significance determined using a one-way analysis of variance with Bonferroni's post test (Graph Pad Instat version 3.0, Graphpad Software, San Diego, Calif.) to test the null hypothesis that there was no difference in the amount of fluorescence under each test condition, as compared to the untreated control.
# V. cholera neuraminidase = target: T1, V. cholera neuraminidase (Vibrio cholerae serotype O1, UniProt P0C6E9); experiment: as above; type: biochemical; conditions: peramivir 0.25 and 2.5 μM; 24-48 hours; fluorescence ex 360 nm / em 465 nm
# T1 construct: purchased Calbiochem, San Diego, Calif
# Experimental: as §1
# T1 sequence (P0C6E9 25-781): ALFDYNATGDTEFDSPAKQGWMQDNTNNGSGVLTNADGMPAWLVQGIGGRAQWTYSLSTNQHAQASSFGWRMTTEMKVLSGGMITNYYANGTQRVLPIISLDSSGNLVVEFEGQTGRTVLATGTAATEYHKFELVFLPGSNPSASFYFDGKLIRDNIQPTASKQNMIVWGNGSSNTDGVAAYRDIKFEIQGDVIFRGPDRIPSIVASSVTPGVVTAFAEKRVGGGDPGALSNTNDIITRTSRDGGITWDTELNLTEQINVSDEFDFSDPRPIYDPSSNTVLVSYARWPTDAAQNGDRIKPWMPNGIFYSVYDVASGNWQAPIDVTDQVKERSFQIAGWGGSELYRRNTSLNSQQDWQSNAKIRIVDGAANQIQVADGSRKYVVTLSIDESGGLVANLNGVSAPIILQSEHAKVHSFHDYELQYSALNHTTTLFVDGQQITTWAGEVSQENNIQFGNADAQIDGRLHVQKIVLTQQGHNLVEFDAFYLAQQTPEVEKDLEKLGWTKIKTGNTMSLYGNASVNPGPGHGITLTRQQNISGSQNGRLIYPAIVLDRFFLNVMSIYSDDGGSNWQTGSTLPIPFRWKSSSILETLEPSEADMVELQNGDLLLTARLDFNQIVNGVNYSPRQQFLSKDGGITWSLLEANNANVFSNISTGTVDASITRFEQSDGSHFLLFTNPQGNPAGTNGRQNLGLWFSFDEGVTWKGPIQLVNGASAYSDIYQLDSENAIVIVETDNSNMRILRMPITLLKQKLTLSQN
Compound,inhibition of biofilm production by PAO1 (PAO1 biofilm formation),inhibition of neuraminidase activity (PAO1 N'ase) [1],inhibition of neuraminidase activity (V. cholera N'ase) (V. cholera neuraminidase)
CCOC(=O)C1=C[C@@H](OC(CC)CC)[C@H](NC(C)=O)[C@@H](N)C1 [oseltamivir],dose dependent inhibition of biofilm production,–,–
CCC(CC)[C@H](NC(C)=O)[C@@H]1[C@H](O)[C@@H](C(=O)O)C[C@H]1N=C(N)N [peramivir],dose dependent inhibition of biofilm production,inhibited,inhibited
CC(=O)N[C@H]1[C@H]([C@H](O)[C@H](O)CO)OC(C(=O)O)=C[C@@H]1N=C(N)N [zanamivir],dose dependent inhibition of biofilm production,–,–
